Reference: the NIST ThermoML archive (doi:10.1016/j.jct.2017.07.040)
± gives the expanded uncertainty stated by the source.

Experiment: mn = molality of the nth substance listed, in mol/kg
Conditions: 101 kPa, Liquid; for viscosity: Capillary tube (Ostwald / Ubbelohde) method; for speed of sound: Frequency=6 MHz, Linear variable-path acoustic interferometer; for mass density: Vibrating tube method

CC1(C)S[C@@H]2[C@H](NC(=O)[C@H](N)c3ccccc3)C(=O)N2[C@H]1C(=O)[O-].[Na+] [Ampicillin Sodium] + O
Conditions | mass density [kg/m3] | speed of sound [m/s] | viscosity [mPa·s]
293.15 K, m1 = 0.035 | 1002.84 ± 1.3 | 1487.5 ± 2.5 | 1.034 ± 0.021
293.15 K, m1 = 0.055 | 1005.4 ± 1.3 | 1492 ± 2.5 | 1.072 ± 0.021
293.15 K, m1 = 0.075 | 1007.9 ± 1.1 | 1496.1 ± 2.5 | 1.109 ± 0.021
293.15 K, m1 = 0.095 | 1010.54 ± 1.3 | 1501.3 ± 2.5 | 1.113 ± 0.021
298.15 K, m1 = 0.035 | 1001.64 ± 1.3 | 1501.6 ± 2.5 | 0.9268 ± 0.021
298.15 K, m1 = 0.055 | 1004.16 ± 1.3 | 1505.6 ± 2.5 | 0.9663 ± 0.021
298.15 K, m1 = 0.075 | 1006.66 ± 1.3 | 1509.6 ± 2.5 | 1.008 ± 0.021
298.15 K, m1 = 0.095 | 1009.25 ± 1.3 | 1515 ± 2.5 | 1.05 ± 0.021
303.15 K, m1 = 0.035 | 1000.19 ± 1.3 | 1514 ± 2.5 | 0.8381 ± 0.021
303.15 K, m1 = 0.055 | 1002.69 ± 1.2 | 1518.1 ± 2.5 | 0.8814 ± 0.021
303.15 K, m1 = 0.075 | 1005.1 ± 1.3 | 1522.1 ± 2.5 | 0.9262 ± 0.021
303.15 K, m1 = 0.095 | 1007.7 ± 1.3 | 1526 ± 2.5 | 0.9736 ± 0.021
308.15 K, m1 = 0.035 | 998.531 ± 1.3 | 1524.7 ± 2.5 | 0.7612 ± 0.021
308.15 K, m1 = 0.055 | 1001.01 ± 1.2 | 1529 ± 2.5 | 0.8077 ± 0.021
308.15 K, m1 = 0.075 | 1003.04 ± 1.2 | 1533 ± 2.5 | 0.8543 ± 0.021
308.15 K, m1 = 0.095 | 1005.84 ± 1.3 | 1535.7 ± 2.5 | 0.9016 ± 0.021
313.15 K, m1 = 0.035 | 996.661 ± 1.3 | 1533.8 ± 2.5 | 0.6978 ± 0.02
313.15 K, m1 = 0.055 | 999.128 ± 1.2 | 1538 ± 2.5 | 0.748 ± 0.021
313.15 K, m1 = 0.075 | 1000.49 ± 1.1 | 1542.5 ± 2.5 | 0.7967 ± 0.021
313.15 K, m1 = 0.095 | 1003.74 ± 1.4 | 1546.1 ± 2.5 | 0.8021 ± 0.021

O [water] + CC1(C)S[C@@H]2[C@H](NC(=O)[C@H](N)c3ccccc3)C(=O)N2[C@H]1C(=O)[O-].[Na+]
m2 = 0
Conditions | mass density [kg/m3] | speed of sound [m/s] | viscosity [mPa·s]
293.15 K | – | – | 1.002 ± 0.021
298.15 K | – | – | 0.8903 ± 0.021
303.15 K | – | – | 0.7973 ± 0.021
308.15 K | 994.063 ± 1.3 | – | 0.719 ± 0.021
313.15 K | – | 1529.3 ± 2.5 | 0.6526 ± 0.02
